Results on six molecules are retold here after paper PMC6010053, “The hop-derived compounds xanthohumol, isoxanthohumol and 8-prenylnaringenin are tight-binding inhibitors of human aldo-keto reductases 1B1 and 1B10” (Journal of Enzyme Inhibition and Medicinal Chemistry, 2018).

Each structure is given as a SMILES string.

For experiment [1], the target named is T1, AKR1B1 (Homo sapiens, UniProt P15121).
T1 construct: 6xHis; made in house; host or cells: E. coli BL21 (DE3)
The experiment is described as follows: AKR1B1-catalysed glyceraldehyde (GA) reduction, NADPH absorbance decrease at 340 nm. The settings on record: for IC50 / Ki: GA at KM 50 μM, mean ± SD; for IC50: 200 μM NADPH, pH 7.4, 37 °C, at least three experiments; for Ki: Morrison equation for tight-binding inhibitors; for mode of inhibition with respect to the co-factor binding site for NADPH: glyceraldehyde reduction, IC50 as a function of NADPH concentration. The experiment is classed as biochemical. The method, then:
(§1) The recombinant enzymes AKR1A1, AKR1B1 and AKR1B10 were prepared in an Escherichia coli expression system according to previously published methods: AKR1A1 was a gentle gift from Prof. Dr. Vladimir Wsol[63]; AKR1B1 was a friendly gift from Dr. Nina Kassner; information about production and purification of AKR1B10 has been published before. Genetic information on the specific inserts of all obtained plasmids was verified by sequencing (MWG Eurofins). The plasmids were then transformed into E. coli BL21 (DE3) cells. For over-expression of 6 × His-tagged enzymes, a 400-ml culture (containing the appropriate antibiotic; plasmid dependent) was grown to an optical density of 0.6 at 600 nm at 37 °C. Protein over-expression was induced by adding isopropyl-1-thio-galactopyranoside (IPTG) to the culture medium (final concentration of 1 mM). After 3 h, cells were harvested by centrifugation (6000 g, 15 min) and re-suspended in 20 ml PBS-I buffer (20 mM NaH2PO4, 500 mM NaCl, 10 mM imidazole, pH 7.4). Cell disruption was performed by ultrasonication with cooling on ice, to avoid heating. The sample was subsequently centrifuged at 100,000 g at 4 °C for 1 h. The obtained supernatants, containing the target protein were purified using Ni-affinity chromatography on an ÄKTA-Purifier System (Amersham Pharmacia Biotech, Uppsala, Sweden). Purification progress was monitored by SDS-PAGE of the obtained fractions (not shown). Enzyme concentrations were determined using a Qubit 2.0 fluorometric quantitation system (Life Technologies, Carlsbad, CA, USA) according to the manufacturer’s instructions.
Catalytic properties were determined by measuring the decrease in absorbance at 340 nm at 37 °C (Cary 100 scan photometer, Varian, Pal Alto, CA, USA). […] Final enzyme concentrations in the assay ranged from 583 nM (AKR1B10) to 712 nM (AKR1B1). For inhibitor selectivity studies on AKR1A1, AKR1B1 and AKR1B10 stock solutions of the inhibitors XN, XI and 8-PN were prepared in dimethyl sulfoxide (DMSO). The final concentration of DMSO in the assay was ≤0.5%. Activity measurements were started without pre-incubation by adding an appropriate amount of enzyme. When collecting data for dose–response curves, initial velocities of the glyceraldehyde reduction (concentration at KM; enzyme specific) in the presence of inhibitors were assayed as described above. The percentage of inhibition was calculated considering the activity in the absence of inhibitor to be 100%.
(§2) Initially, the half maximal inhibitory concentrations (IC50 values) were determined for each inhibitor in the presence of each enzyme, using the shared substrate glyceraldehyde (set to their specific Km; 3.6 mM, 50 µM and 4 mM for AKR1A1, AKR1B1 and AKR1B10, respectively) to assess specificity among the structurally similar members of the AKR-superfamily. For IC50 determination, experimental data were normalised and fitted to a sigmoidal curve as implemented in GraphPad6 (GraphPad Software Inc., La Jolla, CA, USA). Whenever tight-binding inhibition was observed, the inhibition constant Ki was determined by fitting inhibition data to the Morrison equation as implemented in GraphPad Prism6 (GraphPad Software Inc., La Jolla, CA, USA)[65], using non-linear regression.

Experiment [2] deals with T2, AKR1B10 (Homo sapiens, UniProt O60218).
T2 construct: 6xHis; made in house; host or cells: E. coli BL21 (DE3)
T2 sequence (O60218 whole entry): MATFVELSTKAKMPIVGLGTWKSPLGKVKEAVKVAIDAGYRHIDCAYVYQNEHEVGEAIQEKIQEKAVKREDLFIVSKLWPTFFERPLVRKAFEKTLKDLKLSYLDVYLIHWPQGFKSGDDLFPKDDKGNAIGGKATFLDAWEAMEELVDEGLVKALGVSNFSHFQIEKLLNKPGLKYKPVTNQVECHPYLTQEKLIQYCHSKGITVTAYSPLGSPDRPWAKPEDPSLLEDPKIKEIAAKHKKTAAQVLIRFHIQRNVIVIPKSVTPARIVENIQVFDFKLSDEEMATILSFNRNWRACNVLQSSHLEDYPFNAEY
The experiment is described as follows: AKR1B10-catalysed glyceraldehyde (GA) reduction, NADPH absorbance decrease at 340 nm. The experiment is classed as biochemical. The settings on record: GA at KM 4 mM, mean ± SD; for IC50: 200 μM NADPH, pH 7.4, 37 °C, at least three experiments; for Ki: Morrison equation for tight-binding inhibitors. As for the experimental part: as §1
(§3) Catalytic properties were determined by measuring the decrease in absorbance at 340 nm at 37 °C (Cary 100 scan photometer, Varian, Pal Alto, CA, USA). A reaction mixture without inhibitor consisted of different concentrations of substrate (see Table 1 for details), 200 μM NADPH, 0.1 M NaH2PO4 buffer (pH 7.4) and an appropriate amount of enzyme in a total assay volume of 0.8 ml. Final enzyme concentrations in the assay ranged from 583 nM (AKR1B10) to 712 nM (AKR1B1). For inhibitor selectivity studies on AKR1A1, AKR1B1 and AKR1B10 stock solutions of the inhibitors XN, XI and 8-PN were prepared in dimethyl sulfoxide (DMSO). The final concentration of DMSO in the assay was ≤0.5%. Activity measurements were started without pre-incubation by adding an appropriate amount of enzyme. When collecting data for dose–response curves, initial velocities of the glyceraldehyde reduction (concentration at KM; enzyme specific) in the presence of inhibitors were assayed as described above. The percentage of inhibition was calculated considering the activity in the absence of inhibitor to be 100%.
as §2

A further experiment deals with T3, AKR1A1 (Homo sapiens, UniProt P14550).
T3 construct: 6xHis; made in house; host or cells: E. coli BL21 (DE3)
T3 sequence (P14550 1-325): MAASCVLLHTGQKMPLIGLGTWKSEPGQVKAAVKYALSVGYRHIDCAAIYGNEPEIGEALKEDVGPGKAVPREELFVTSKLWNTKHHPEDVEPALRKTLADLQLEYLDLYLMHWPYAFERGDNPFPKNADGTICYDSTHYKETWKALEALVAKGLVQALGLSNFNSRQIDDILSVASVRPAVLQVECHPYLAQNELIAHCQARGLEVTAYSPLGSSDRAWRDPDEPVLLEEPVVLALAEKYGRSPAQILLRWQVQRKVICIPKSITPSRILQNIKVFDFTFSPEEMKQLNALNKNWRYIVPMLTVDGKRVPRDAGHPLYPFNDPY
The experiment is described as follows: AKR1A1-catalysed glyceraldehyde reduction (inhibitor selectivity). It is filed as biochemical. The method, then:
as §1
Catalytic properties were determined by measuring the decrease in absorbance at 340 nm at 37 °C (Cary 100 scan photometer, Varian, Pal Alto, CA, USA). A reaction mixture without inhibitor consisted of different concentrations of substrate (see Table 1 for details), 200 μM NADPH, 0.1 M NaH2PO4 buffer (pH 7.4) and an appropriate amount of enzyme in a total assay volume of 0.8 ml. […] The percentage of inhibition was calculated considering the activity in the absence of inhibitor to be 100%. […]

In experiment [3] the target is T1, AKR1B1. In words: AKR1B1-catalysed glucose reduction (physiological substrate). The experiment is classed as biochemical. The settings on record: for Ki / IC50: glucose at KM 32 mM, mean ± SD; for Ki: Morrison equation; for IC50: at least three experiments; for mode of inhibition: with respect to the substrate glucose, IC50 at five substrate concentrations. As for the experimental part: as §3, §2
(§4) In order to verify the inhibitory potency, enzyme-specific physiological substrates for AKR1B1 (glucose, KM = 32 mM) and AKR1B10 (farnesal; KM = 5 µM) were used to determine inhibition parameters. Enzyme inhibition parameters were assayed as described above. The inhibition mechanism of each compound for the respective enzymes was analysed by plotting IC50 values at different substrate concentrations (at least five inhibitor and substrate concentrations)[65]^,[66]. All data obtained were plotted and analysed using GraphPad Prism6 (GraphPad Software Inc., La Jolla, CA, USA).

Experiment [4] addresses T2, AKR1B10. In words: AKR1B10-catalysed farnesal reduction (physiological substrate). The settings on record: for Ki / IC50: farnesal at KM 5 μM, mean ± SD; for Ki: Morrison equation; for IC50: at least three experiments; for mode of inhibition: with respect to the substrate farnesal, IC50 at five substrate concentrations. It is filed as biochemical. As for the experimental part:
as §3, §2, §4

For experiment [5], the system named is AKR1B10. Set-up: method as in PMID 26844556, PMID 27359042, PMID 28003428, PMID 26968129, PMID 21561086. The settings on record: selective inhibitors identified so far; cited from earlier work.
The subject of experiment [6] is AKR1B1. Also on record: method as in earlier work. The settings on record: glyceraldehyde as substrate; cited from earlier work.

With `COc1cc(O)c(CC=C(C)C)c2c1C(=O)CC(c1ccc(O)cc1)O2` (stereo not shown) [IX, isoxanthohumol], on AKR1B1 [1], the 50% inhibitory concentration (IC50) was determined as 0.57 ± 0.02 µM, the Ki was determined as 0.17 ± 0.02 µM and the “mode of inhibition with respect to the co-factor binding site for NADPH” value (“mode of inhibition … for NADPH” below) is given as “uncompetitive”. In addition, at AKR1B10 [2], the 50% inhibitory concentration (IC50) is 1090 ± 60 nM and the affinity corresponds to a Ki of 520 ± 50 nM. For the same molecule, the “effect on the activity of AKR1A1” value on AKR1A1 is given as “not affecting”. Moreover, on AKR1B1 [3], the inhibitory constant (Ki) is 340 ± 60 nM, the IC50 came out at 880 ± 50 nM and the mode of inhibition result is on record as “uncompetitive”. On AKR1B10 [4], affinity was put at a Ki of 2250 ± 240 nM, half-maximal inhibition (IC50) required 4240 ± 230 nM and the mode of inhibition result is recorded as “uncompetitive”.
On to `C[C@@]12CCC[C@H]1[C@@H]1C[C@@H](O)[C@@]3(O)C[C@@H](O)CC[C@]3(CO)[C@H]1CC2` [Androst-3β,5α,6β,19-tetrol], for which, in the experiment on AKR1B10 [5], the IC50 is 860 nM.
As for `COc1cc(O)c(CC=C(C)C)c(O)c1C(=O)/C=C/c1ccc(O)cc1` [XN, xanthohumol], on AKR1B1 [1], the half-inhibitory concentration (IC50) amounted to 9.11 ± 1.02 µM, affinity was put at a Ki of 5.29 ± 0.95 µM and the “mode of inhibition … for NADPH” value was “non-competitive”. At AKR1B10 [2], this molecule showed an IC50 of 6560 ± 690 nM and a Ki of 4560 ± 980 nM. The “effect on the activity of AKR1A1” value at AKR1A1 is “not affecting”. On AKR1B1 [3], the inhibitory constant (Ki) turned out to be 15100 ± 1650 nM, inhibition was half-maximal at 29200 ± 2300 nM (IC50) and the mode of inhibition result is reported as “uncompetitive”. For the same molecule, on AKR1B10 [4], affinity was put at a Ki of 20100 ± 3730 nM, the IC50 worked out at 41400 ± 6860 nM and the mode of inhibition result was “uncompetitive”.
For the molecule `CC1(C)CC[C@]2(C(=O)O)CC[C@]3(C)C(=CC[C@@H]4[C@@]5(C)CC[C@H](O)C(C)(C)[C@@H]5CC[C@]43C)[C@@H]2C1` [oleanolic acid], in the experiment on AKR1B10 [5], the IC50 was 90 nM.
With `CC(C)=CCc1c(O)cc2c(c1O)C(=O)C[C@@H](c1ccc(O)cc1)O2` [6-PN, 6-prenylnaringenin], the IC50 with AKR1B1 [6] is 6200 nM.
Regarding `CC(C)=CCc1c(O)cc(O)c2c1O[C@H](c1ccc(O)cc1)CC2=O` [8-PN, 8-prenylnaringenin], the IC50 against AKR1B1 [1] amounted to 0.81 ± 0.03 µM; against AKR1B10 [2], 990 ± 40 nM; against AKR1B1 [3], 1870 ± 90 nM; at AKR1B10 [4], 3960 ± 170 nM. The Ki turned out to be 0.3 ± 0.03 µM on AKR1B1 [1], 520 ± 50 nM at AKR1B10 [2], 710 ± 90 nM at AKR1B1 [3] and 1950 ± 120 nM on AKR1B10 [4]. Moreover, on AKR1B1 [1], the “mode of inhibition … for NADPH” value is “non-competitive”. Moreover, at AKR1B1 [1] (ratio of AKR1B1 IC50 values, glyceraldehyde as substrate), the “inhibitory potency, times greater as compared to that of 6-PN” value worked out at 7.6 times. For the same molecule, on AKR1A1, the “effect on the activity of AKR1A1” value was “not affecting”. The mode of inhibition entry at AKR1B1 [3] and on AKR1B10 [4] was “uncompetitive” in each case.

In general, IC50 refers to the concentration that inhibits the measured activity by half. Usually Ki stands for a measure of affinity in units of concentration, obtained from inhibition or displacement. Lower therefore signals higher affinity.
